Test results reported in patent US9701662B2, “Herbicidal compounds” (Syngenta Participations AG, priority 2014, dated 2017).

Columns and labels:
Assay type in all cases: in vivo
[1] = tested on: Amaranthus retoflexus (AMARE); assay: Pre-emergence glasshouse herbicide test; conditions: pre-emergence (sprayed after one day cultivation), 1000 g/h, evaluated after 13 days, five point scale
Protocol: (§1) Seeds of a variety of test species are sown in standard soil in pots (Lolium perenne (LOLPE), Solanum nigrum (SOLNI), Amaranthus retoflexus (AMARE), Setaria faberi (SETFA), Echinochloa crus-galli (ECHCG), Ipomoea hederacea (IPOHE)). After cultivation for one day (pre-emergence) or after 8 days cultivation (post-emergence) under controlled conditions in a glasshouse (at 24/16° C., day/night; 14 hours light; 65% humidity), the plants are sprayed with an aqueous spray solution derived from the formulation of the technical active ingredient in acetone/water (50:50) solution containing 0.5% Tween 20 (polyoxyethelyene sorbitan monolaurate, CAS RN 9005-64-5). Compounds are applied at 1000 g/h. The test plants are then grown in a glasshouse under controlled conditions in a glasshouse (at 24/16° C., day/night; 14 hours light; 65% humidity) and watered twice daily. After 13 days for pre and post-emergence, the test is evaluated for the percentage damage caused to the plant. The biological activities are shown in the following table on a five point scale (5=80-100%; 4=60-79%; 3=40-59%; 2=20-39%; 1=0-19%).

[2] = tested on: Solanum nigrum (SOLNI); assay: Pre-emergence glasshouse herbicide test; conditions: pre-emergence (sprayed after one day cultivation), 1000 g/h, evaluated after 13 days, five point scale
Protocol: as §1

[3] = tested on: Echinochloa crus-galli (ECHCG); assay: Pre-emergence glasshouse herbicide test; conditions: pre-emergence (sprayed after one day cultivation), 1000 g/h, evaluated after 13 days, five point scale
Protocol: as §1

[4] = tested on: Ipomoea hederacea (IPOHE); assay: Pre-emergence glasshouse herbicide test; conditions: pre-emergence (sprayed after one day cultivation), 1000 g/h, evaluated after 13 days, five point scale
Protocol: as §1

[5] = tested on: Lolium perenne (LOLPE); assay: Pre-emergence glasshouse herbicide test; conditions: pre-emergence (sprayed after one day cultivation), 1000 g/h, evaluated after 13 days, five point scale
Protocol: as §1

[6] = tested on: Setaria faberi (SETFA); assay: Pre-emergence glasshouse herbicide test; conditions: pre-emergence (sprayed after one day cultivation), 1000 g/h, evaluated after 13 days, five point scale
Protocol: as §1

[7] = tested on: Amaranthus retoflexus (AMARE); assay: Post-emergence glasshouse herbicide test; conditions: post-emergence (sprayed after 8 days cultivation), 1000 g/h, evaluated after 13 days, five point scale
Protocol: as §1

[8] = tested on: Solanum nigrum (SOLNI); assay: Post-emergence glasshouse herbicide test; conditions: post-emergence (sprayed after 8 days cultivation), 1000 g/h, evaluated after 13 days, five point scale
Protocol: as §1

[9] = tested on: Echinochloa crus-galli (ECHCG); assay: Post-emergence glasshouse herbicide test; conditions: post-emergence (sprayed after 8 days cultivation), 1000 g/h, evaluated after 13 days, five point scale
Protocol: as §1

[10] = tested on: Ipomoea hederacea (IPOHE); assay: Post-emergence glasshouse herbicide test; conditions: post-emergence (sprayed after 8 days cultivation), 1000 g/h, evaluated after 13 days, five point scale
Protocol: as §1

[11] = tested on: Lolium perenne (LOLPE); assay: Post-emergence glasshouse herbicide test; conditions: post-emergence (sprayed after 8 days cultivation), 1000 g/h, evaluated after 13 days, five point scale
Protocol: as §1

[12] = tested on: Setaria faberi (SETFA); assay: Post-emergence glasshouse herbicide test; conditions: post-emergence (sprayed after 8 days cultivation), 1000 g/h, evaluated after 13 days, five point scale
Protocol: as §1

Row | SMILES | percentage damage caused to the plant, AMARE, PRE Application [1] | percentage damage caused to the plant, SOLNI, PRE Application [2] | percentage damage caused to the plant, ECHCG, PRE Application [3] | percentage damage caused to the plant, IPOHE, PRE Application [4] | percentage damage caused to the plant, LOLPE, PRE Application [5] | percentage damage caused to the plant, SETFA, PRE Application [6] | percentage damage caused to the plant, AMARE, POST Application [7] | percentage damage caused to the plant, SOLNI, POST Application [8] | percentage damage caused to the plant, ECHCG, POST Application [9] | percentage damage caused to the plant, IPOHE, POST Application [10] | percentage damage caused to the plant, LOLPE, POST Application [11] | percentage damage caused to the plant, SETFA, POST Application [12]
1 | CCOc1c(C(=O)Nc2nnnn2C)nn(C)c(=O)c1-c1ccc(Cl)c(Cl)c1 [Compound 1.032] | 5 (5=80-100%) | 5 (5=80-100%) | 5 (5=80-100%) | 4 (4=60-79%) | 4 (4=60-79%) | 5 (5=80-100%) | 5 (5=80-100%) | 5 (5=80-100%) | 5 (5=80-100%) | 4 (4=60-79%) | 4 (4=60-79%) | 5 (5=80-100%)
2 | Cn1nnnc1NC(=O)c1nn(C)c(=O)c(-c2cccc(Cl)c2)c1Cl [Compound 1.012] | 5 (5=80-100%) | 5 (5=80-100%) | 5 (5=80-100%) | 4 (4=60-79%) | 5 (5=80-100%) | 5 (5=80-100%) | 5 (5=80-100%) | 5 (5=80-100%) | 5 (5=80-100%) | 3 (3=40-59%) | 5 (5=80-100%) | 4 (4=60-79%)
3 | Cc1ccc(-c2c(Cl)c(C(=O)Nc3nnnn3C)nn(C)c2=O)cc1 [Compound 1.015] | 5 (5=80-100%) | 5 (5=80-100%) | 5 (5=80-100%) | 2 (2=20-39%) | 5 (5=80-100%) | 5 (5=80-100%) | 5 (5=80-100%) | 5 (5=80-100%) | 5 (5=80-100%) | 3 (3=40-59%) | 5 (5=80-100%) | 5 (5=80-100%)
4 | CCCCNc1c(C(=O)Nc2nnnn2C)nn(C)c(=O)c1C [Compound 1.008] | 4 (4=60-79%) | 2 (2=20-39%) | 1 (1=0-19%) | 2 (2=20-39%) | 1 (1=0-19%) | 1 (1=0-19%) | 5 (5=80-100%) | 5 (5=80-100%) | 1 (1=0-19%) | 2 (2=20-39%) | 1 (1=0-19%) | 1 (1=0-19%)
5 | Cn1nnnc1NC(=O)c1nn(C)c(=O)c(-c2ccc(C(F)(F)F)cc2)c1Cl [Compound 1.023] | 4 (4=60-79%) | 5 (5=80-100%) | 5 (5=80-100%) | 2 (2=20-39%) | 5 (5=80-100%) | 5 (5=80-100%) | 2 (2=20-39%) | 5 (5=80-100%) | 5 (5=80-100%) | 2 (2=20-39%) | 5 (5=80-100%) | 5 (5=80-100%)
6 | COc1ccc(-c2c(Cl)c(C(=O)Nc3nnnn3C)nn(C)c2=O)cc1OC [Compound 1.017] | 5 (5=80-100%) | 5 (5=80-100%) | 5 (5=80-100%) | 5 (5=80-100%) | 5 (5=80-100%) | 5 (5=80-100%) | 5 (5=80-100%) | 5 (5=80-100%) | 5 (5=80-100%) | 5 (5=80-100%) | 5 (5=80-100%) | 5 (5=80-100%)
7 | COc1cccc(-c2c(Cl)c(C(=O)Nc3nnnn3C)nn(C)c2=O)c1 [Compound 1.036] | 5 (5=80-100%) | 5 (5=80-100%) | 5 (5=80-100%) | 2 (2=20-39%) | 5 (5=80-100%) | 5 (5=80-100%) | 5 (5=80-100%) | 5 (5=80-100%) | 5 (5=80-100%) | 4 (4=60-79%) | 5 (5=80-100%) | 5 (5=80-100%)
8 | Cn1nnnc1NC(=O)c1nn(C)c(=O)c(-c2ccccc2C(F)(F)F)c1Cl [Compound 1.037] | 5 (5=80-100%) | 5 (5=80-100%) | 5 (5=80-100%) | 5 (5=80-100%) | 5 (5=80-100%) | 5 (5=80-100%) | 5 (5=80-100%) | 5 (5=80-100%) | 5 (5=80-100%) | 5 (5=80-100%) | 5 (5=80-100%) | 5 (5=80-100%)
9 | Cc1ccc(C)c(-c2c(Cl)c(C(=O)Nc3nnnn3C)nn(C)c2=O)c1 [Compound 1.020] | 5 (5=80-100%) | 5 (5=80-100%) | 5 (5=80-100%) | 5 (5=80-100%) | 5 (5=80-100%) | 5 (5=80-100%) | 5 (5=80-100%) | 5 (5=80-100%) | 5 (5=80-100%) | 5 (5=80-100%) | 5 (5=80-100%) | 5 (5=80-100%)
